Source: US5367110A, “Transgenic plants overproducing threonine and lysine” (Yeda Research and Development Co. Ltd., priority 1990, dated 1994)
“Also recorded” adds a separate entry of the source. Read-outs that look alike come from different tables or passages of the source.

How the values were obtained:
[1] = system: tobacco shoots (control and transgenic plant B-7); test: Resistance of tobacco shoots to aminoethylcysteine (AEC); assay type: in vivo; details: 0.1 and 0.15 mM AEC in MS medium; transgenic B-7 (E. coli DHPS) vs control
Procedure: To test whether the transgenic tobacco plants expressing the E. coli DHPS gene were more resistant to the lysine analog AEC compared to control nontransformed plants, shoots from control plants (FIG. 21, left) and from transgenic tobacco plant B-7 (FIG. 21, right) were dipped in MS medium containing 2 mg/l kinetin, 0.8 mg/l IAA and either 0, 0.1, 0.15 or 0.2 mM AEC.

[2] = target: T1, E. coli mutated, desensitized AK (Escherichia coli, UniProt P08660); test: AK activity with lysine and/or threonine, leaf extracts of transgenic plant E-6; assay type: biochemical; details: 10 mM lysine, threonine or both; transgenic plant E-6 (mutant bacterial enzyme)
T1 construct: transgenic tobacco plant E-6, crude leaf extract
T1 sequence (P08660 2-449, change not shown): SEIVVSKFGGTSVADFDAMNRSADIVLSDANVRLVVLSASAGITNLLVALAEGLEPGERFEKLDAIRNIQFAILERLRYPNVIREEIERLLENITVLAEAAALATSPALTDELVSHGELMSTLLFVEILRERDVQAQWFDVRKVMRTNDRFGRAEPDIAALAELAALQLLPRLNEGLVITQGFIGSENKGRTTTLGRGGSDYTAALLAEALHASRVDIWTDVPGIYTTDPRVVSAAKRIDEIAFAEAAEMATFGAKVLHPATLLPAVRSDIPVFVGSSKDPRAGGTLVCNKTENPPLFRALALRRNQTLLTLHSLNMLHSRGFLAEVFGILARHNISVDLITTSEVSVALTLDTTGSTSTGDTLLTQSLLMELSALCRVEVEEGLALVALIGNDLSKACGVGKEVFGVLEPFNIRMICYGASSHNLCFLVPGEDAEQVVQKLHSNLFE
Procedure: (§1) Transgenic plants were screened for an elevated AK activity. AK activity was assayed in crude extracts from leaves of transgenic plants by the method of Black and Wright (Black, S., et al. (1955) J. Biol. Chem. 213: 27-38). Leaves from axenic tobacco plants grown on Nitsch minimal medium (Nitsch, J. P. (1969) Phytomorphology 19: 389-404) in Magenta boxes for about one month were homogenized with a mortar and pestle in an equal volume of cold 20 mM potassium phosphate buffer pH 7.0 containing 30 mM β-mercaptoethanol, 0.1 mM L-lysine, 0.1 mM L-threonine, 1 mM phenylmethylsulfonilfluoride and 0.5 mM leupeptin. Following 5 min centrifugation (16,000 .g, 4° C.) the supernatant was collected and its protein concentration was determined by the method of Bradford (Bradford, M. M. (1976) Anal. Biochem. 72: 248-254). Equal amounts of protein were then tested for AK activity. […] The reaction mixture was stopped by addition of 0.25 ml of a 1:1:1 mixture of 10% FeCl3 in 0.1M HCl, 3M HCl and 12% TCA, centrifuged and the optical absorbance of the supernatant at 490 nm was measured.
(§2) AK activity was measured in crude extracts prepared from tobacco leaves as above except that 10 mM lysine, threonine or both amino acids were present in the reaction mixture as indicated on the right. […]

plant DHPSs = details: plant DHPS; read-out: I50 of plant DHPSs, lysine; cited from earlier work
DHPS = target: T2, DHPS (Nicotiana tabacum, UniProt Q42948); test: DHPS activity (O-ABA assay) with increasing lysine, leaf extracts of control nontransformed tobacco; assay type: biochemical
T2 construct: from tissue; host or cells: leaves of nontransformed tobacco (crude extract)
T2 sequence (Q42948 34-359): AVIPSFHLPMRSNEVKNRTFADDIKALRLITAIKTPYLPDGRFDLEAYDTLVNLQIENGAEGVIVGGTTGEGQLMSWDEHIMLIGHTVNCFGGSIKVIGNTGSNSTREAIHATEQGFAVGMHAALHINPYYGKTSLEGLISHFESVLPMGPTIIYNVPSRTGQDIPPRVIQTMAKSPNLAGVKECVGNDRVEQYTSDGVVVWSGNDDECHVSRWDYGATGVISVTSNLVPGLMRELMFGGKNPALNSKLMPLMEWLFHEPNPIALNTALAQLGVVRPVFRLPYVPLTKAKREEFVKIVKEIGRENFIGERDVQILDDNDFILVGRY
Procedure: (§3) Transgenic plants were screened for an elevated DHPS activity. DHPS activity was assayed in crude extracts from leaves of transgenic plants by the O-amino-benzaldehyde (O-ABA) assay of Yugari and Gilvarg (Yugari Y. and Gilvarg C., (1965) J. Biol. Chem. 240: 4710-4716) with slight modifications. Leaves from axenic tobacco plants grown in culture were homogenized with a mortar and pestle in an equal volume of cold 100 mM Tris-HCl pH 7.5 containing 1 mM phenylmethylsulfonylfluoride and 0.5 μg/ml leupeptine. Following 5 min centrifugation (16,000 xg, 4° C.) the supernatant was collected and its protein concentration was determined by the method of Bradford.
(§4) DHPS activity was assayed as above but in the presence of increasing lysine concentrations. At each lysine concentration, DHPS activity is presented as a percentage of the activity in extracts with no lysine added (average of two plants for each transformation). (Control)--nontransformed plants; (Cytoplasm)--average DHPS activity of plants A-11 and A-22 containing the cytoplasmic-type E. coli DHPS; (Chloroplast)--average DHPS activity of plants B-7 and B-15 containing the chloroplastic-type E. coli DHPS. The elevated levels of DHPS activity in the transgenic plants clearly resulted from the expression of the E. coli enzyme in them. […] In contrast, the I50 for DHPS inhibition by lysine in the control nontransformed plants was 27 μM.

E. coli DHPS [3] = target: T3, E. coli DHPS (Escherichia coli, UniProt P0A6L2); details: cited from earlier work
T3 sequence (P0A6L2 whole entry): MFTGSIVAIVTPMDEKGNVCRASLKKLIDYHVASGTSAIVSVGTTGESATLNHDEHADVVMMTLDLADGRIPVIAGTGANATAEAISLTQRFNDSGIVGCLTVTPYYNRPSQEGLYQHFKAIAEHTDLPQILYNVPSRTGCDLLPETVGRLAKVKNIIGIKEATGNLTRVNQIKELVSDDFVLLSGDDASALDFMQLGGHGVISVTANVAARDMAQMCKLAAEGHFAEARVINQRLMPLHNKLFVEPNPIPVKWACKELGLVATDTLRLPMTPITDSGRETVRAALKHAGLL

E. coli DHPS [4] = target: T3, E. coli DHPS; test: DHPS activity (O-ABA assay) with increasing lysine, leaf extracts of transgenic tobacco expressing E. coli DHPS; assay type: biochemical; parameters: pea rbcS-3A chloroplast transit peptide (chloroplastic type only; absent in the cytoplasmic type) (N); expressed in transfected cells; host or cells: transgenic tobacco plants (crude leaf extract; A-11 and A-22 cytoplasmic type, B-7 and B-15 chloroplastic type)
Procedure: as §3, §4

E. coli DHPS [5] = test: as above; assay type: biochemical; details: transgenic vs wild type/control plants
Procedure: as §3, §4

[6] = system: nontransformed tobacco leaf AK; test: AK activity with lysine and/or threonine, leaf extracts of nontransformed tobacco; assay type: biochemical; details: 10 mM lysine, threonine or both; nontransformed (wild type) tobacco leaf extract
Procedure: as §1, §2

| Compound | growth of transgenic shoots compared with control in AEC medium [1] | inhibition of AK activity [2] | IC50 (plant DHPSs) [µM] | IC50 (DHPS) [µM] | IC50 (E. coli DHPS [3]; read-out: I50 of E. coli DHPS, lysine, E. coli DHPS) [µM] | IC50 (E. coli DHPS [3]; read-out: of E. coli DHPS, lysine inhibition, E. coli DHPS (dapA)) [µM] | inhibition at 1000 µM (E. coli DHPS [4]; 1 mM lysine, read-out: inhibition of bacterial DHPS) [%] | IC50 (E. coli DHPS [4]; transgenic tobacco plants, crude leaf extract, read-out: I50 for DHPS inhibition by lysine) [µM] | sensitivity of DHPS activity in transgenic plants to lysine inhibition compared with control plants (E. coli DHPS [5]) | inhibition of AK activity [6] [%] |
| --- | --- | --- | --- | --- | --- | --- | --- | --- | --- | --- |
| NCCSC[C@H](N)C(=O)O [AEC, S-(2-aminoethyl)-L-cysteine] | the transgenic plant clearly grows better than the control; also recorded: much less sensitive |  |  |  |  |  |  |  |  |  |
| NCCCC[C@H](N)C(=O)O [lysine] |  | completely resistant; also recorded: completely unaffected | 10 to 50 | 27 | ~1000 | 1000 | ~50 | 1600 | less sensitive to lysine inhibition; also recorded: much more resistant to feedback inhibition |  |
| C[C@@H](O)[C@H](N)C(=O)O [threonine] |  | completely resistant; also recorded: completely unaffected |  |  |  |  |  |  |  | 70 |
